Results reported in ChEMBL document CHEMBL5154642, “Development of [18F]MIPS15692, a radiotracer with in vitro proof-of-concept for the imaging of MER tyrosine kinase (MERTK) in neuroinflammatory disease” (Eur J Med Chem, 2021).

How the values were obtained:
[1] = Drug uptake in liver of cuprizone-challenged C57BL/6 mouse at 4.4 mg/kg, iv by PET imaging; format: ADME, organism-based; settings: in vivo
[2] = Retention time of the compound by HPLC analysis; format: physicochemical
[3] = target: T1, Tyrosine-protein kinase Mer (Mus musculus, UniProt Q60805); assay: Binding affinity to MERTK in cuprizone-challenged C57BL/6 mouse brain CC/HC region assessed as dissociation constant at 18.1 nM by autoradiography; format: tissue-based
T1 sequence (Q60805 whole entry): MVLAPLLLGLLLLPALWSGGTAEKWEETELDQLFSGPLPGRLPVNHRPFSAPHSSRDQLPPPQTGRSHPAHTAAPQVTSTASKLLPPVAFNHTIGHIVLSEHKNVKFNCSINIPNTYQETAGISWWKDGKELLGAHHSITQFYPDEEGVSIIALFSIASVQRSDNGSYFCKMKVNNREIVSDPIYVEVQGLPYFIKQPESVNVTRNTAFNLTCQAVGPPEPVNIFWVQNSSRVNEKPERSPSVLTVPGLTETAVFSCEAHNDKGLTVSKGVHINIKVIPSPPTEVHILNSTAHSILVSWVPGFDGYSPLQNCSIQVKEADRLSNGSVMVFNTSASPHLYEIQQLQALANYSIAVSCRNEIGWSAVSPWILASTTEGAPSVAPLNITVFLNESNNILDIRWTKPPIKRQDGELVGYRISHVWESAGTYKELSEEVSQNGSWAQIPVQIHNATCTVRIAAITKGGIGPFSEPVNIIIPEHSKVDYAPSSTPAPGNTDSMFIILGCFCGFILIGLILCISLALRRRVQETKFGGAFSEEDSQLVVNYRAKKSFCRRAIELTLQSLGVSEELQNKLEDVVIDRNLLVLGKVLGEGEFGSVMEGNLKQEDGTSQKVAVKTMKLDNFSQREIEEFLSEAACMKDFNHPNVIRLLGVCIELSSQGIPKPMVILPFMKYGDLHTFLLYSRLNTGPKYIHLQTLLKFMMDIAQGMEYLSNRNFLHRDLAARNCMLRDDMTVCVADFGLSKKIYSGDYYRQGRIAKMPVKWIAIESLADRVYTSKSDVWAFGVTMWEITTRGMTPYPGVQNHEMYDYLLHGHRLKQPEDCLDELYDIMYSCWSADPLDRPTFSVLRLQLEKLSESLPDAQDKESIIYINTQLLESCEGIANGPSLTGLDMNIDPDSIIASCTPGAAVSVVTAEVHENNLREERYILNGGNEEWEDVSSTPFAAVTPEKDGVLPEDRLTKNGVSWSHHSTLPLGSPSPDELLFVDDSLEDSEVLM

[4] = Drug uptake in brain of cuprizone-challenged C57BL/6 mouse at 4.4 mg/kg, iv by PET imaging measured upto 2 mins; format: ADME, organism-based; settings: in vivo
[5] = target: T1, Tyrosine-protein kinase Mer; assay: Binding affinity to MERTK in cuprizone-challenged C57BL/6 mouse whole brain assessed as dissociation constant at 18.1 nM by autoradiography; format: tissue-based
[6] = Drug uptake in heart of cuprizone-challenged C57BL/6 mouse at 4.4 mg/kg, iv by PET imaging; format: ADME, organism-based; settings: in vivo
[7] = Retention time of the compound by UV-Vis spectroscopy analysis; format: physicochemical
[8] = Drug uptake in Swiss outbred mouse brain assessed as time required to reach peak value at 3 mg/kg, iv measured after 60 mins by LC-MS/MS analysis; format: ADME, organism-based
[9] = target: T2, Tyrosine-protein kinase Mer (Mus musculus) (UniProt Q60805); assay: Binding affinity to MERTK in cuprizone-challenged C57BL/6 mouse brain CC/HC region assessed as maximum binding at 18.1 nM by autoradiography; format: tissue-based; settings: tested as the 18F-labelled form
T2 sequence (whole entry): T1 sequence (Q60805 whole entry)

[10] = target: T2, Tyrosine-protein kinase Mer (Mus musculus); assay: Binding affinity to MERTK in cuprizone-challenged C57BL/6 mouse whole brain assessed as maximum binding at 18.1 nM by autoradiography; format: tissue-based; settings: tested as the 18F-labelled form
[11] = Unbound brain-to-plasma concentration ratio in Swiss outbred mouse at 4.4 mg/kg, iv measured after 2 hrs; format: ADME, organism-based; settings: read-out: K(p,uu,brain)

| Drug uptake [1] | Retention_time [2] | Kd [3] | Drug uptake [4] | Kd [5] | Drug uptake [6] | Retention_time [7] | Bmax [9] | Bmax [10] | Kp uu at 2 h [11] | Compound | Tmax [8] |
| --- | --- | --- | --- | --- | --- | --- | --- | --- | --- | --- | --- |
| <= 0.24% | 18.57 min | 19.7 nM | 0.023% | 12.6 nM | <= 0.24% | 18.8 min |  |  |  | CCCCNc1ncc(C(=O)NC2CCN(CCC[18F])CC2)c(N[C@H]2CC[C@H](O)CC2)n1 |  |
|  |  |  |  |  |  |  | 896 fmol/mg | 422 fmol/mg | > 1 | CCCCNc1ncc(C(=O)NC2CCN(CCCF)CC2)c(N[C@H]2CC[C@H](O)CC2)n1 | 15 min |
|  |  |  |  |  |  |  |  |  |  | CCCCNc1ncc(C(=O)NC2CCN(CCF)CC2)c(N[C@H]2CC[C@H](O)CC2)n1 | 15 min |
